From paper PMC9653409, “Generative deep learning enables the discovery of a potent and selective RIPK1 inhibitor” (Nature Communications, 2022)
Like-named read-outs stand apart in the source and are kept apart here.

Assays:
Test in all cases: Kinase inhibitory activity profiling of RI-962@10 µM (406 kinases, Eurofins)
Type in all cases: biochemical
[1] = biological target: panel of human kinases (kinase named in endpoint) (Homo sapiens, UniProt Q9H4B4); conditions: 10 µM; read-out: Activity (%), Plk3(h)
Summary of the method: (§1)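 Radiometric filter-binding kinase assays: enzyme preincubated 15 min with compound in 8 mM MOPS pH 7.0, 0.2 mM EDTA, 250 μM peptide substrate, 10 mM magnesium acetate, 10 μM [γ-33P]-ATP. Reaction started with Mg/ATP, run 40 min at room temperature, stopped with phosphoric acid; 33P incorporation read by scintillation counting. Other kinases by similar protocols.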

[2] = biological target: panel of human kinases (kinase named in endpoint) (Homo sapiens, UniProt Q8N568); conditions: 10 µM; read-out: Activity (%), DCAMKL2(h)
Summary of the method: as §1

[3] = biological target: panel of human kinases (kinase named in endpoint) (Homo sapiens, UniProt Q15375); conditions: 10 µM; read-out: Activity (%), EphA7(h)
Summary of the method: as §1

[4] = biological target: panel of human kinases (kinase named in endpoint) (Homo sapiens, UniProt O00311); conditions: 10 µM; read-out: Activity (%), Cdc7/cyclinB1(h)
Summary of the method: as §1

[5] = biological target: panel of human kinases (kinase named in endpoint) (Homo sapiens, UniProt Q92918); conditions: 10 µM; read-out: Activity (%), HPK1(h)
Summary of the method: as §1

[6] = biological target: panel of human kinases (kinase named in endpoint) (Homo sapiens, UniProt Q9BYP7); conditions: 10 µM; read-out: Activity (%), WNK3(h)
Summary of the method: as §1

[7] = biological target: panel of human kinases (kinase named in endpoint) (Homo sapiens, UniProt Q9Y2H1); conditions: 10 µM; read-out: Activity (%), NDR2(h)
Summary of the method: as §1

[8] = biological target: panel of human kinases (kinase named in endpoint) (Homo sapiens, UniProt O96013); conditions: 10 µM; read-out: Activity (%), PAK4(h)
panel of human kinases (kinase named in endpoint) (Homo sapiens, UniProt O96013), sequence (O96013 whole entry): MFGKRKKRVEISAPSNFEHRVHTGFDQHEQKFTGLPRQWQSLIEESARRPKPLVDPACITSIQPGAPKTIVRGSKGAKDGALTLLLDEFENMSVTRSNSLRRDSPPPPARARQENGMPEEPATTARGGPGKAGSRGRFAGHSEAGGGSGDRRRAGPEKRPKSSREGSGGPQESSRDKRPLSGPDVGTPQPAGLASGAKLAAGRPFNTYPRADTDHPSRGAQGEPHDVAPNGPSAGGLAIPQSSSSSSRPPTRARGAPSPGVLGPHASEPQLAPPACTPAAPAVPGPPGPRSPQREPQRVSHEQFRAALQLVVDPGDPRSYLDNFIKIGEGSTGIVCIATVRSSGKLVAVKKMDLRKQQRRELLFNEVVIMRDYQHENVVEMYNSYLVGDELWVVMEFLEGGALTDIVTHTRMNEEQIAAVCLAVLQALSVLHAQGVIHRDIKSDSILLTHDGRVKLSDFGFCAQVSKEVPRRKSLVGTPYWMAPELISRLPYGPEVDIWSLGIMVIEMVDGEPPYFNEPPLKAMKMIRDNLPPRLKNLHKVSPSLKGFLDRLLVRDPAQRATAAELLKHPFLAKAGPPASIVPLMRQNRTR
Summary of the method: as §1

[9] = biological target: panel of human kinases (kinase named in endpoint) (Homo sapiens, UniProt Q05513); conditions: 10 µM; read-out: Activity (%), PKCζ(h)
Summary of the method: as §1

[10] = biological target: panel of human kinases (kinase named in endpoint) (Homo sapiens, UniProt Q9H093); conditions: 10 µM; read-out: Activity (%), NUAK2(h)
panel of human kinases (kinase named in endpoint) (Homo sapiens, UniProt Q9H093), sequence (Q9H093 whole entry): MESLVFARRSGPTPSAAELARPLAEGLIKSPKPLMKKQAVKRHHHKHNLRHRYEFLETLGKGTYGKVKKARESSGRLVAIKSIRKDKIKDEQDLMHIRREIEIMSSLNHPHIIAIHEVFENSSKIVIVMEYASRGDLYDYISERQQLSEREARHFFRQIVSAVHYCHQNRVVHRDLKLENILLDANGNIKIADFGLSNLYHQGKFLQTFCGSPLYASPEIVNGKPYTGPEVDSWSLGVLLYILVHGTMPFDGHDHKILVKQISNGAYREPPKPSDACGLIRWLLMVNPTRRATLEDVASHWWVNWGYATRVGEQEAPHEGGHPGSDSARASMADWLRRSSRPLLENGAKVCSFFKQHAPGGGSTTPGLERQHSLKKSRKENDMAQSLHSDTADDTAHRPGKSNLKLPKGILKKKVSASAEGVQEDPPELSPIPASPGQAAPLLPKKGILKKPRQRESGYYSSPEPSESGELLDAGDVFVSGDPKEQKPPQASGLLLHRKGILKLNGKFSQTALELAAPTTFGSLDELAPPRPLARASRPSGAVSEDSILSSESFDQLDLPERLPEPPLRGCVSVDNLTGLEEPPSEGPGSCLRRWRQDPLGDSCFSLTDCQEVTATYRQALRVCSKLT
Summary of the method: as §1

[11] = biological target: panel of human kinases (kinase named in endpoint) (Homo sapiens, UniProt Q00535); conditions: 10 µM
panel of human kinases (kinase named in endpoint) (Homo sapiens, UniProt Q00535), sequence (Q00535 whole entry): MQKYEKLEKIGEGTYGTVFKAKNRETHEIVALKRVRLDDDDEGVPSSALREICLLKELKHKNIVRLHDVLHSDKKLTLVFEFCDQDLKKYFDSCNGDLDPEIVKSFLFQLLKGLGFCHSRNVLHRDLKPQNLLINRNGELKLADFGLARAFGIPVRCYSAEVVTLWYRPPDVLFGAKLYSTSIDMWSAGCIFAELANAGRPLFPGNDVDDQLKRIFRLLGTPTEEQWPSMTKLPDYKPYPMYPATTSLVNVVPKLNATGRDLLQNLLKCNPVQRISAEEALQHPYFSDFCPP
Summary of the method: as §1

[12] = biological target: panel of human kinases (kinase named in endpoint) (Homo sapiens, UniProt Q16816); conditions: 10 µM; read-out: Activity (%), PhKγ1(h)
Summary of the method: as §1

[13] = biological target: panel of human kinases (kinase named in endpoint) (Homo sapiens, UniProt Q16288); conditions: 10 µM; read-out: Activity (%), TrkC(h)
Summary of the method: as §1

[14] = biological target: panel of human kinases (kinase named in endpoint) (Homo sapiens, UniProt O75385); conditions: 10 µM; read-out: Activity (%), ULK1(h)
panel of human kinases (kinase named in endpoint) (Homo sapiens, UniProt O75385), sequence (O75385 whole entry): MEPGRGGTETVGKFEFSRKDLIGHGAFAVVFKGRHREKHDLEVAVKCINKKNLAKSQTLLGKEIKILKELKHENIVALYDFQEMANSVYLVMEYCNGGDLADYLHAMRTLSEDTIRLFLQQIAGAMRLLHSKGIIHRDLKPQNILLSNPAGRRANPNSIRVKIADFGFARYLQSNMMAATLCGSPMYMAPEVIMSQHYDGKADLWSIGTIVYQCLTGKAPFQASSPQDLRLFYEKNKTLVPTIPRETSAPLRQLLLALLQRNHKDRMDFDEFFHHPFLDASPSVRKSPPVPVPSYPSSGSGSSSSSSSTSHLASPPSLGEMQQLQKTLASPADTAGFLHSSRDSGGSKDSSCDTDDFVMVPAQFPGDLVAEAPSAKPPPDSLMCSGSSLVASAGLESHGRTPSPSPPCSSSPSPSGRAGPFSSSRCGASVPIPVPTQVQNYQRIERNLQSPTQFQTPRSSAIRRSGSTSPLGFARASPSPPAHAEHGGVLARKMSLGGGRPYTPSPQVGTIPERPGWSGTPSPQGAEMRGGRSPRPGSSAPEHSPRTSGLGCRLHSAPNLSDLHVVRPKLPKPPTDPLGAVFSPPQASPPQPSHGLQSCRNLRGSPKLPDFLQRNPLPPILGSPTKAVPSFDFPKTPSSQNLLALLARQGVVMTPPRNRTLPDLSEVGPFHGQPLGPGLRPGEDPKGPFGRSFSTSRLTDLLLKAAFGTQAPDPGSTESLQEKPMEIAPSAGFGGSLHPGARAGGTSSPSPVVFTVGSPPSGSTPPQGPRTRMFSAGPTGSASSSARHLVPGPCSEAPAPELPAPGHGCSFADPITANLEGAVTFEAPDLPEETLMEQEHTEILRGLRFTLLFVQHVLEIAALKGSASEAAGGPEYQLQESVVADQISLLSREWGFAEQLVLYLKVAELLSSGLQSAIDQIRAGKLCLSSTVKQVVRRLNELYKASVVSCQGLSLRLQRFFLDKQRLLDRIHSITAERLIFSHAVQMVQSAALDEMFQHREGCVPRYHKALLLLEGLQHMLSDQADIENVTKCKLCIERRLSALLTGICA
Summary of the method: as §1

[15] = biological target: panel of human kinases (kinase named in endpoint) (Homo sapiens, UniProt Q8NG66); conditions: 10 µM; read-out: Activity (%), NEK11(h)
Summary of the method: as §1

[16] = biological target: panel of human kinases (kinase named in endpoint) (Homo sapiens, UniProt Q15139); conditions: 10 µM; read-out: Activity (%), PKCμ(h)
Summary of the method: as §1

[17] = biological target: panel of human kinases (kinase named in endpoint) (Homo sapiens, UniProt P51617); conditions: 10 µM; read-out: Activity (%), IRAK1(h)
Summary of the method: as §1

[18] = biological target: panel of human kinases (kinase named in endpoint) (Homo sapiens, UniProt Q13177); conditions: 10 µM; read-out: Activity (%), PAK2(h)
panel of human kinases (kinase named in endpoint) (Homo sapiens, UniProt Q13177), sequence (Q13177 whole entry): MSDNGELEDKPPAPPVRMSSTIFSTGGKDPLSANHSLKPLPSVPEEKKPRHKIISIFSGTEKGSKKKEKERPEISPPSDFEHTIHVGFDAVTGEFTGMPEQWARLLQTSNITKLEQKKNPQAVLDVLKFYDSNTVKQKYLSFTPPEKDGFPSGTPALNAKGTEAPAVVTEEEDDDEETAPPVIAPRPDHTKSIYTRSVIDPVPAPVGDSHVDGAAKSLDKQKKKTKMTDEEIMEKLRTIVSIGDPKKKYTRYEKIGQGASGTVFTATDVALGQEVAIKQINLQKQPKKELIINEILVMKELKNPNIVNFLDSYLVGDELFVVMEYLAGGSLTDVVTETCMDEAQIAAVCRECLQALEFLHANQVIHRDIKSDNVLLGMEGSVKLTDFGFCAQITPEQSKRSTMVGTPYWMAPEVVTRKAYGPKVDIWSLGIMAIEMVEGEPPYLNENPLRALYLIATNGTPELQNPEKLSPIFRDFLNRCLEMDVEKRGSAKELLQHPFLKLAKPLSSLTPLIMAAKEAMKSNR
Summary of the method: as §1

[19] = biological target: panel of human kinases (kinase named in endpoint) (Homo sapiens, UniProt Q02750); conditions: 10 µM; read-out: Activity (%), MEK1(h)
Summary of the method: as §1

[20] = biological target: panel of human kinases (kinase named in endpoint) (Homo sapiens, UniProt O43293); conditions: 10 µM; read-out: Activity (%), ZIPK(h)
Summary of the method: as §1

[21] = biological target: panel of human kinases (kinase named in endpoint) (Homo sapiens, UniProt P53671); conditions: 10 µM; read-out: Activity (%), LIMK2(h)
panel of human kinases (kinase named in endpoint) (Homo sapiens, UniProt P53671), sequence (P53671 whole entry): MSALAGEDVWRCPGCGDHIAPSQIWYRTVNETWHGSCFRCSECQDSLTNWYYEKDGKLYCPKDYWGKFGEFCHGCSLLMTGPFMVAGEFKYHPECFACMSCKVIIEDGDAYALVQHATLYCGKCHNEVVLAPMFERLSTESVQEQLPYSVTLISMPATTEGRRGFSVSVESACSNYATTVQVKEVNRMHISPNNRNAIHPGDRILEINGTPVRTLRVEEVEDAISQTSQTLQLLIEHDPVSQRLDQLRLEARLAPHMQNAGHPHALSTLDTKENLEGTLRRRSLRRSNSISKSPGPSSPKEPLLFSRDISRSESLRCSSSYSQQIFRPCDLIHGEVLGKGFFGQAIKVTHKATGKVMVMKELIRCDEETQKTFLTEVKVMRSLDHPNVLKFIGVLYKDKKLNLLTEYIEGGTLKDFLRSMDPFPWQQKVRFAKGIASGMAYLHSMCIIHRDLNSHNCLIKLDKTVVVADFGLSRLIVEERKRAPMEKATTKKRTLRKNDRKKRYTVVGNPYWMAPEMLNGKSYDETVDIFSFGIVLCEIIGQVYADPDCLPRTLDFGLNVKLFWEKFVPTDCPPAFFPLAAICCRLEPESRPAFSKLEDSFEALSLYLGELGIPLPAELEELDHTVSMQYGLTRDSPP
Summary of the method: as §1

[22] = biological target: panel of human kinases (kinase named in endpoint) (Homo sapiens, UniProt Q00526); conditions: 10 µM; read-out: Activity (%), CDK3/cyclinE(h)
Summary of the method: as §1

[23] = biological target: panel of human kinases (kinase named in endpoint) (Homo sapiens, UniProt O14920); conditions: 10 µM; read-out: Activity (%), IKKβ(h)
panel of human kinases (kinase named in endpoint) (Homo sapiens, UniProt O14920), sequence (O14920 whole entry): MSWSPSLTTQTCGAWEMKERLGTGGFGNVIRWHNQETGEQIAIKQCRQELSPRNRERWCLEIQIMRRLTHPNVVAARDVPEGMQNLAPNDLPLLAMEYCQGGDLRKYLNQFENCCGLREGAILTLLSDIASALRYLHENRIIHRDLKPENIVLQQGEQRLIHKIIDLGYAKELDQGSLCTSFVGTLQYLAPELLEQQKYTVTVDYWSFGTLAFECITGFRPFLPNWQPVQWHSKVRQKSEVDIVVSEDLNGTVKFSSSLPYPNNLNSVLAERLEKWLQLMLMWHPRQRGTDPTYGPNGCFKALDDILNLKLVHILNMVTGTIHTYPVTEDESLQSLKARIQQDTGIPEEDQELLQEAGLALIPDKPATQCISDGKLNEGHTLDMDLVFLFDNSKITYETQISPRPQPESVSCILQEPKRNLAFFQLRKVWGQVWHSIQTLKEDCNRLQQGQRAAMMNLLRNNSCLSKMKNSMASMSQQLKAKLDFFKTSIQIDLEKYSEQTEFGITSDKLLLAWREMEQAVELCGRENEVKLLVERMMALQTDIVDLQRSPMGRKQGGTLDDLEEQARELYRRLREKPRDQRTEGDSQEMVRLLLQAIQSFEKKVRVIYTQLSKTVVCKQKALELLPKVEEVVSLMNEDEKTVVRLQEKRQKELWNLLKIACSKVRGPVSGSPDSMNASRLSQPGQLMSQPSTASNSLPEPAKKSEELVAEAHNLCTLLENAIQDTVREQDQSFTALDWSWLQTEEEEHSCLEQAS
Summary of the method: as §1

[24] = biological target: panel of human kinases (kinase named in endpoint) (Homo sapiens, UniProt P16234, D842V); conditions: 10 µM; read-out: Activity (%), PDGFRα(D842V)(h)
Summary of the method: as §1

[25] = biological target: panel of human kinases (kinase named in endpoint) (Homo sapiens, UniProt Q9Y6M4); conditions: 10 µM; read-out: Activity (%), CK1γ3(h)
panel of human kinases (kinase named in endpoint) (Homo sapiens, UniProt Q9Y6M4), sequence (Q9Y6M4 whole entry): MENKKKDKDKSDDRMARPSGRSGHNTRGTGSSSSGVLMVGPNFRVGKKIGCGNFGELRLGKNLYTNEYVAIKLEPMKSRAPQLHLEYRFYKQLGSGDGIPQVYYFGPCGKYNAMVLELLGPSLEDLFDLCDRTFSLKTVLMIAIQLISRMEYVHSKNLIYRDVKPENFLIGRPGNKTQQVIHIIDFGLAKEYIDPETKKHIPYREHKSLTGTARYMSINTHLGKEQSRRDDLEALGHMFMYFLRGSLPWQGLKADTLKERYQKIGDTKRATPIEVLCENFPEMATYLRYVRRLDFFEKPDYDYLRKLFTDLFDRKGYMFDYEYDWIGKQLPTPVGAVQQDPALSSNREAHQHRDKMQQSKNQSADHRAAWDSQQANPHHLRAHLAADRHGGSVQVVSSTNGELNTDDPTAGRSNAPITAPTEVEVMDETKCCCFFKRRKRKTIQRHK
Summary of the method: as §1

[26] = biological target: panel of human kinases (kinase named in endpoint) (Homo sapiens, UniProt Q15831); conditions: 10 µM; read-out: Activity (%), LKB1(h)
Summary of the method: as §1

CC(C)C(=O)Nc1nc2cc(-c3ccc4c(c3)c(C(=O)NC(C)c3ccccc3)cn4C)ccn2n1 (stereo not drawn) [RI-962]
activity at 10 µM [1]: 88% | activity at 10 µM [2]: 132% | activity at 10 µM [3]: 100% | activity at 10 µM [4]: 53% | activity at 10 µM [5]: 92% | activity at 10 µM [6]: 75% | activity at 10 µM [7]: 85% | activity at 10 µM [8]: 92% | activity at 10 µM [9]: 119% | activity at 10 µM [10]: 86% | activity at 10 µM ([11]; read-out: Activity (%), CDK5/p25(h)): 92% | activity at 10 µM ([11]; read-out: Activity (%), CDK5/p35(h)): 118% | activity at 10 µM [12]: 98% | activity at 10 µM [13]: 56% | activity at 10 µM [14]: 69% | activity at 10 µM [15]: 89% | activity at 10 µM [16]: 87% | activity at 10 µM [17]: 103% | activity at 10 µM [18]: 84% | activity at 10 µM [19]: 105% | activity at 10 µM [20]: 102% | activity at 10 µM [21]: 101% | activity at 10 µM [22]: 119% | activity at 10 µM [23]: 88% | activity at 10 µM [24]: 104% | activity at 10 µM [25]: 96% | activity at 10 µM [26]: 105%
